Reference: PubChem BioAssay AID1259407 (Chemical Carcinogenesis Research Information System (CCRIS), 2018)
Active and inactive are the calls of the source. No rule for the calls is given here.

Tested on: CCRIS mutagenicity, Ames/micronucleus/aberration tests
Assay: CCRIS mutagenicity studies
Settings: Test System: AMES SALMONELLA TYPHIMURIUM
[1] = Strain/Indicator: TA98, Metabolic Activation: NONE, Method: STANDARD PLATE
[2] = Strain/Indicator: TA100, Metabolic Activation: NONE, Method: STANDARD PLATE

SMILES: Oc1ccc2ccc3c4ccccc4ccc3c2c1
- mutagenic call [1]: inactive; negative
- mutagenic call [2]: inactive; negative
- mutagenic call (Strain/Indicator: TA100, Metabolic Activation: RAT, LIVER, S-9, AROCLOR 1254, Method: STANDARD PLATE): active; positive

SMILES: COCCN(CCOC)c1cc(NC(C)=O)c(-n2nc3c(Br)cc(N)c(Cl)c3n2)cc1OC
- mutagenic call (Strain/Indicator: TA98, Metabolic Activation: RAT LIVER S-9, AROCLOR 1254, Method: STANDARD PLATE): active; positive
- mutagenic call (Strain/Indicator: TA100, Metabolic Activation: RAT LIVER S-9, AROCLOR 1254, Method: STANDARD PLATE): active; positive
- mutagenic call (Strain/Indicator: TA104, Metabolic Activation: RAT LIVER S-9, AROCLOR 1254, Method: STANDARD PLATE): active; positive
- mutagenic call (Strain/Indicator: YG1024, Metabolic Activation: RAT LIVER S-9, PHENOBARBITAL, 5,6-BENZOFLAVONE (10%), Method: PREINCUBATION): active; positive

SMILES: Nc1ccc(/C=C/c2cccc(N)c2)cc1
- mutagenic call (Strain/Indicator: TA98(1,8-DNP6), Metabolic Activation: NONE, Method: STANDARD PLATE): inactive; negative
- mutagenic call (Strain/Indicator: TA98(1,8-DNP6), Metabolic Activation: S-9, Method: STANDARD PLATE): active; positive
- mutagenic call [1]: active; positive
- mutagenic call (Strain/Indicator: TA98, Metabolic Activation: S-9, Method: STANDARD PLATE): active; positive
- mutagenic call [2]: inactive; negative
- mutagenic call (Strain/Indicator: TA100, Metabolic Activation: S-9, Method: STANDARD PLATE): active; positive

SMILES: Cc1cc(=O)oc2cc(O)ccc12
- mutagenic call (Strain/Indicator: TA98, Metabolic Activation: HAMSTER, LIVER, S-9, AROCLOR 1254, Method: PREINCUBATION): inactive; negative
- mutagenic call (Strain/Indicator: TA98, Metabolic Activation: NONE, Method: PREINCUBATION): inactive; negative
- mutagenic call (Strain/Indicator: TA98, Metabolic Activation: RAT, LIVER, S-9, AROCLOR 1254, Method: PREINCUBATION): inactive; negative
- mutagenic call (Strain/Indicator: TA100, Metabolic Activation: HAMSTER, LIVER, S-9, AROCLOR 1254, Method: PREINCUBATION): inactive; negative
- mutagenic call (Strain/Indicator: TA100, Metabolic Activation: NONE, Method: PREINCUBATION): inactive; negative
- mutagenic call (Strain/Indicator: TA100, Metabolic Activation: RAT, LIVER, S-9, AROCLOR 1254, Method: PREINCUBATION): inactive; negative
- mutagenic call (Strain/Indicator: TA1535, Metabolic Activation: HAMSTER, LIVER, S-9, AROCLOR 1254, Method: PREINCUBATION): inactive; negative
- mutagenic call (Strain/Indicator: TA1535, Metabolic Activation: NONE, Method: PREINCUBATION): inactive; negative
- mutagenic call (Strain/Indicator: TA1535, Metabolic Activation: RAT, LIVER, S-9, AROCLOR 1254, Method: PREINCUBATION): inactive; negative
- mutagenic call (Strain/Indicator: TA1537, Metabolic Activation: HAMSTER, LIVER, S-9, AROCLOR 1254, Method: PREINCUBATION): inactive; negative
- mutagenic call (Strain/Indicator: TA1537, Metabolic Activation: NONE, Method: PREINCUBATION): inactive; negative
- mutagenic call (Strain/Indicator: TA1537, Metabolic Activation: RAT, LIVER, S-9, AROCLOR 1254, Method: PREINCUBATION): inactive; negative

SMILES: c1cc2c3c(c1)=C1OC1C=3Cc1cc3ccccc3cc1-2 (configuration not stated)
- mutagenic call [1]: active; positive
- mutagenic call (Strain/Indicator: TA98, Metabolic Activation: RAT, LIVER, S-9, AROCLOR 1254, Method: STANDARD PLATE): active; positive
